Patent US20250214951A1, “3-PHENYLISOXAZOLE DERIVATIVE, AND PHARMACEUTICAL COMPOSITION FOR PREVENTING OR TREATING EYE DISEASE, CONTAINING SAME AS ACTIVE INGREDIENT” (VASTHERA CO., LTD., priority 2022, published 2025)

Tested on: LC3-II
Experiment: LC3-II production capacity at 10 μM (Table 4)
Assay type: cell-based
Details: Homo sapiens, 12 h
Protocol: ARPE-19 was dispensed into a 6-well plate at a concentration of 1×10^5 cells/well and cultured for 24 hours. Then, cells were treated with example 17 compound of the present invention at concentrations of 10, 25, and 50 μM for 12 hours. Then, a cell lysis buffer containing a protease inhibitor was added to prepare a cell lysate. The LC3-II level was measured by Western immunoblotting using an anti-LC3-II antibody (Cell Signaling Technology, MA, USA). As an internal control, an antibody against β-actin (Cell Signaling Technology) was used and measured by Western immunoblotting in the same manner as above, and is shown in FIG. 6 (upper graph).
The autophagy activation effect of example compounds expected to have autophagy activation ability and low cytotoxicity among the example compounds in Table 2 above in human retinal pigment epithelial cells was evaluated according to Experimental Example 7. That is, the autophagy activation effect through the increase of LC3-II was evaluated in a concentration-dependent manner, and the results are shown in FIGS. 15 and 16.

| Compound | fold induction at 10 µM |
| --- | --- |
| C=CCc1ccc(OC)c(-c2cc(CN3CCNCC3)on2)c1 [Example 29, 3-(5-allyl-methoxyphenyl)-5-(piperazine-1-ylmethyl)isoxazole] | 5.8 |
| COc1ccc(C(F)(F)F)cc1-c1cc(CO)on1 [Example 31, (3-(2-methoxy-5-(trifluoromethyl)phenyl)isoxazole-5-yl)methanol] | 0.8 |
| COc1ccc(C(F)(F)F)cc1-c1cc(C(C)(C)O)on1 [Example 32, 2-(3-(2-methoxy-5-(trifluoromethyl)phenyl)isoxazole-5-yl)propan-2-ol] | 0.9 |
| COc1ccc(C(F)(F)F)cc1-c1cc(CCO)on1 [Example 33, 2-(3-(2-methoxy-5-(trifluoromethyl)phenyl)isoxazole-5-yl)ethan-1-ol] | 1.5 |
| COc1cc(C(F)(F)F)ccc1-c1cc(CO)on1 [Example 35, (3-(2-methoxy-4-(trifluoromethyl)phenyl)isoxazole-5-yl)methanol] | 1.1 |
| COc1ccc(C(F)(F)F)cc1-c1cc(COCC(=O)O)on1 [Example 36, 2-((3-(2-methoxy-5-(trifluoromethyl)phenyl)isoxazole-5-yl)methoxy)acetic acid] | 2.3 |
| COc1ccc(C(F)(F)F)cc1-c1cc(CN2CCN(C)C(=O)C2)on1 [Example 37, 4-((3-(2-methoxy-5-(trifluoromethyl)phenyl)isoxazole-5-yl)methyl)-1-methylpiperazine-2-on] | 2.2 |
| COc1ccc(N2CCOCC2)cc1-c1cc(CO)on1 [Example 38, (3-(2-methoxy-5-morpholinophenyl)isoxazole-5-yl)methanol] | 1.2 |
| C=CCc1ccc(OC)c(-c2cc(C(C)(C)O)on2)c1 [Example 39, 2-(3-(5-allyl-2-methoxyphenyl)isoxazole-5-yl)propan-2-ol] | 0.7 |
| CCCc1ccc(OC)c(-c2cc(C(C)(C)O)on2)c1 [Example 40, 2-(3-(2-methoxy-5-propylphenyl)isoxazole-5-yl)propan-2-ol] | 1.6 |
| C=CCc1ccc(OC(F)(F)F)c(-c2cc(CO)on2)c1 [Example 43, (3-(5-allyl-2-(trifluoromethoxy)phenyl)isooxazole-5-yl)methanol] | 19.7 |
| C=CCc1ccc(-c2cc(CO)on2)c(OC)c1 [Example 44, (3-(4-allyl-2-methoxyphenyl)isoxazole-5-yl)methanol] | 3.8 |
| COc1ccc(C(C)C)cc1-c1cc(CO)on1 [Example 45, (3-(5-isopropyl-2-methoxyphenyl)isoxazole-5-yl)methanol] | 2.5 |
| COc1ccc(C(C)C)cc1-c1cc(CN2CCN(C(=O)OC(C)(C)C)CC2)on1 [Example 46, tert-butyl 4-((3-(5-isopropyl-2-methoxyphenyl)isoxazole-5-yl)methyl)piperazine-1-carboxylate] | 1.5 |
| C=CCc1ccc(-c2cc(CN3CCN(C(=O)OC(C)(C)C)CC3)on2)c(OC)c1 [Example 48, tert-butyl 4-((3-(4-allyl-2-methoxyphenyl)isoxazole-5-yl)methyl)piperazine-1-carboxylate] | > 15 |
| C=CCc1ccc(-c2cc(CN3CCNCC3)on2)c(OC)c1 [Example 49, 3-(4-allyl-2-methoxyphenyl)-5-(piperazine-1-ylmethyl)isoxazole] | 1.1 |

| Compound | fold induction at 10 µM |
| --- | --- |
| C=CCc1ccc(OC(F)(F)F)c(-c2cc(CN3CCN(C(=O)OC(C)(C)C)CC3)on2)c1 [Example 50, tert-butyl 4-((3-(5-allyl-2-(trifluoromethoxy)phenyl)isoxazole-5-yl)methyl)piperazine-1-carboxylate] | > 25 |
| C=CCc1ccc(OC(F)(F)F)c(-c2cc(CN3CCNCC3)on2)c1 [Example 51, 3-(5-allyl-2-(trifluoromethoxy)phenyl)-5-(piperazine-1-ylmethyl)isoxazole] | > 15 |
| C=CCc1ccc(OC(F)(F)F)c(-c2cc(CN3CCN(C)CC3)on2)c1 [Example 52, 3-(5-allyl-2-(trifluoromethoxy)phenyl)-5-((4-methylpiperazine-1-yl)methyl)isoxazole] | > 13 |
| CCCc1ccc(OC)c(-c2cc(CN3C[C@@H](C)O[C@@H](C)C3)on2)c1 [Example 53, (2S,6R)-4-((3-(2-methoxy-5-propylphenyl)isoxazole-5-yl)methyl)-2,6-dimethylmorpholine] | 0.9 |
| CCCc1ccc(OC)c(-c2cc(CN3CCC(OC)CC3)on2)c1 [Example 54, 3-(2-methoxy-5-propylphenyl)-5-((4-methoxypiperidine-1-yl)methyl)isoxazole] | 2.8 |
| CCCc1ccc(OC)c(-c2cc(CN3CCC(C(=O)O)CC3)on2)c1 [Example 55, 1-((3-(2-methoxy-5-propylphenyl)isoxazole-5-yl)methyl)piperidine-4-carboxylic acid] | 1.8 |
| CCCc1ccc(OC)c(-c2cc(CN3CCc4sccc4C3)on2)c1 [Example 56, 5-((6,7-dihydrothieno[3,2-c]pyridin-5(4H)-yl)methyl)-3-(2-methoxy-5-propylphenyl)isoxazole] | 1.5 |
| CCCc1ccc(OC)c(-c2cc(CN3CCn4ccnc4C3)on2)c1 [Example 57, 5-((5,6-dihydroimidazo[1,2-a]pyrazin-7(8H)-yl)methyl)-3-(2-methoxy-5-propylphenyl)isoxazole] | 1.1 |
| COc1ccc(CCO)cc1-c1cc(CN2CCN(C)CC2)on1 [Example 61, 2-(4-methoxy-3-(5-((4-methylpiperazine-1-yl)methyl)isoxazole-3-yl)phenyl)ethan-1-ol] | 0.9 |
| COCCc1ccc(OC)c(-c2cc(CN3CCN(C)CC3)on2)c1 [Example 62, 3-(2-methoxy-5-(2-methoxyethyl)phenyl)-5-((4-methylpiperazine-1-yl)methyl)isoxazole] | 2.4 |
| COc1ccc(C(C)C)cc1-c1cc(CN2CCN(C(C)=O)CC2)on1 [Example 63, 1-(4-((3-(5-isopropyl-2-methoxyphenyl)isoxazole-5-yl)methyl)piperazine-1-yl)ethan-1-on] | 1.9 |
| C=CCc1ccc(OC)c(-c2cc(COc3ncnc4ccccc34)on2)c1 [Example 65, 3-(5-allyl-2-methoxyphenyl)-5-((quinazoline-4-yloxy)methyl)isoxazole] | 1.8 |
| C=C(C)Cc1ccc(OC)c(-c2cc(CN3CCN(C(=O)OC(C)(C)C)CC3)on2)c1 [Example 66, tert-butyl 4-((3-(2-methoxy-5-(2-methylallyl)phenyl)isoxazole-5-yl)methyl)piperazine-1-carboxylate] | > 18 |
| C=C(C)Cc1ccc(OC)c(-c2cc(CN3CCNCC3)on2)c1 [Example 67, 3-(2-methoxy-5-(2-methylallyl)phenyl)-5-(piperazine-1-ylmethyl)isoxazole] | 22.7 |
| C=C(C)Cc1ccc(OC)c(-c2cc(CO)on2)c1 [Example 68, (3-(2-methoxy-5-(2-methylallyl)phenyl)isoxazole-5-yl)methanol] | 7.7 |
| COc1ccc(CC=C(C)C)cc1-c1cc(CN2CCN(C)CC2)on1 [Example 69, 3-(2-methoxy-5-(3-methylbut-2-en-1-yl)phenyl)-5-((4-methylpiperazine-1-yl)methyl)isoxazole] | 5 |
